{
  "source": "patent US20260262643A1",
  "about": "“HERBICIDAL BENZOXAZINES” (FMC CORPORATION, priority 2022, published 2026)",
  "key": {"oat, wild [1]": {"tested_on": "oat, wild", "assay": "Test C postemergence", "format": "in vivo, Avena fatua", "conditions": "10 days, 0 to 100 scale (0 no effect, 100 complete control)", "in_short": "(§1)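 Soil-applied (pre) and foliar (post, 1–2 leaf, 2–10 cm) sprays; surfactant-containing non-phytotoxic solvent vehicle; loam/sand substrate. Readout: visual % control at 10 d, greenhouse, versus untreated.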"}, "wheat [2]": {"tested_on": "wheat", "assay": "Test C postemergence", "format": "in vivo, Triticum aestivum", "conditions": "Postemergence, 125 g ai/ha; 0 to 100 scale (0 no effect, 100 complete control), 10 days", "in_short": "as §1"}, "soybean [3]": {"tested_on": "soybean", "assay": "Test C postemergence", "format": "in vivo, Glycine max", "conditions": "Postemergence, 125 g ai/ha; 0 to 100 scale (0 no effect, 100 complete control), 10 days", "in_short": "as §1"}, "kochia [4]": {"tested_on": "kochia", "assay": "Test C preemergence", "format": "in vivo, Bassia scoparia", "in_short": "as §1"}, "green foxtail [5]": {"tested_on": "green foxtail", "assay": "Test C preemergence", "format": "in vivo, Setaria viridis", "in_short": "as §1"}, "rice": {"tested_on": "rice", "assay": "Test D flooded paddy test", "format": "in vivo, Oryza sativa", "conditions": "250 g ai/ha, applied to paddy water, visual rating after 13 to 14 days, scale 0 to 100 (0 no effect, 100 complete control)", "in_short": "(§2)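 Plants at the 2-leaf stage were grown in pots flooded to 3 cm, and compound was applied directly into the paddy water, with depth kept throughout. After 13–14 days in a greenhouse, injury was rated visually against untreated controls on a 0–100 scale (100 = complete control); a dash means not tested.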"}, "kochia [6]": {"tested_on": "kochia", "assay": "Test C postemergence", "format": "in vivo, Bassia scoparia", "conditions": "10 days, 0 to 100 scale (0 no effect, 100 complete control)", "in_short": "as §1"}, "ragweed [7]": {"tested_on": "ragweed", "assay": "Test C preemergence", "format": "in vivo, Ambrosia artemisiifolia", "in_short": "as §1"}, "soybean [8]": {"tested_on": "soybean", "assay": "Test C preemergence", "format": "in vivo, Glycine max", "in_short": "as §1"}, "corn [9]": {"tested_on": "corn", "assay": "Test C preemergence", "format": "in vivo, Zea mays", "in_short": "as §1"}, "blackgrass [10]": {"tested_on": "blackgrass", "assay": "Test C postemergence", "format": "in vivo, Alopecurus myosuroides", "conditions": "10 days, 0 to 100 scale (0 no effect, 100 complete control)", "in_short": "as §1"}, "pigweed, palmer [11]": {"tested_on": "pigweed, palmer", "assay": "Test C postemergence", "format": "in vivo, Amaranthus palmeri", "conditions": "10 days, 0 to 100 scale (0 no effect, 100 complete control)", "in_short": "as §1"}, "wheat [12]": {"tested_on": "wheat", "assay": "Test C preemergence", "format": "in vivo, Triticum aestivum", "in_short": "as §1"}, "oat, wild [13]": {"tested_on": "oat, wild", "assay": "Test C preemergence", "format": "in vivo, Avena fatua", "in_short": "as §1"}, "corn [14]": {"tested_on": "corn", "assay": "Test C postemergence", "format": "in vivo, Zea mays", "conditions": "10 days, 0 to 100 scale (0 no effect, 100 complete control)", "in_short": "as §1"}, "ryegrass, Italian [15]": {"tested_on": "ryegrass, Italian", "assay": "Test C preemergence", "format": "in vivo, Lolium multiflorum", "in_short": "as §1"}, "ragweed [16]": {"tested_on": "ragweed", "assay": "Test C postemergence", "format": "in vivo, Ambrosia artemisiifolia", "conditions": "Postemergence, 125 g ai/ha; 0 to 100 scale (0 no effect, 100 complete control), 10 days", "in_short": "as §1"}, "sedge, umbrella": {"tested_on": "sedge, umbrella", "assay": "Test D flooded paddy test", "format": "in vivo, Cyperus difformis", "conditions": "250 g ai/ha, applied to paddy water, visual rating after 13 to 14 days, scale 0 to 100 (0 no effect, 100 complete control)", "in_short": "as §2"}, "ryegrass, Italian [17]": {"tested_on": "ryegrass, Italian", "assay": "Test C postemergence", "format": "in vivo, Lolium multiflorum", "conditions": "Postemergence, 125 g ai/ha; 0 to 100 scale (0 no effect, 100 complete control), 10 days", "in_short": "as §1"}, "blackgrass [18]": {"tested_on": "blackgrass", "assay": "Test C preemergence", "format": "in vivo, Alopecurus myosuroides", "in_short": "as §1"}, "ducksalad": {"tested_on": "ducksalad", "assay": "Test D flooded paddy test", "format": "in vivo, Heteranthera limosa", "conditions": "250 g ai/ha, applied to paddy water, visual rating after 13 to 14 days, scale 0 to 100 (0 no effect, 100 complete control)", "in_short": "as §2"}, "pigweed, palmer [19]": {"tested_on": "pigweed, palmer", "assay": "Test C preemergence", "format": "in vivo, Amaranthus palmeri", "in_short": "as §1"}, "horseweed": {"tested_on": "horseweed", "assay": "Test C postemergence", "format": "in vivo, Erigeron canadensis", "conditions": "10 days, 0 to 100 scale (0 no effect, 100 complete control)", "in_short": "as §1"}, "barnyardgrass [20]": {"tested_on": "barnyardgrass", "assay": "Test D flooded paddy test", "format": "in vivo, Echinochloa crus-galli", "conditions": "250 g ai/ha, applied to paddy water, visual rating after 13 to 14 days, scale 0 to 100 (0 no effect, 100 complete control)", "in_short": "as §2"}, "barnyardgrass [21]": {"tested_on": "barnyardgrass", "assay": "Test C preemergence", "format": "in vivo, Echinochloa crusgalli", "in_short": "as §1"}, "barnyardgrass [22]": {"tested_on": "barnyardgrass", "assay": "Test C postemergence", "format": "in vivo, Echinochloa crusgalli", "conditions": "10 days, 0 to 100 scale (0 no effect, 100 complete control)", "in_short": "as §1"}, "green foxtail [23]": {"tested_on": "green foxtail", "assay": "Test C postemergence", "format": "in vivo, Setaria viridis", "conditions": "10 days, 0 to 100 scale (0 no effect, 100 complete control)", "in_short": "as §1"}, "[24]": {"conditions": "500 g ai/ha, preemergence, 0 to 100 scale (0 no effect, 100 complete control)"}, "[25]": {"conditions": "Preemergence, 125 g ai/ha, 0 to 100 scale, 0 no effect, 100 complete control"}},
  "data": [
    {"smiles": "Cc1ccc(-n2cnc(C(C)(C)C#N)n2)cc1C(=O)N1C[C@H](C)Oc2c(Cl)cccc21", "note": "[Compound 397]", "values": [
      {"measurement": "Plant response rating, Oat, Wild", "setting": "oat, wild [1]; 500 g ai/ha, postemergence", "result": 70},
      {"measurement": "Plant response rating, Oat, Wild", "setting": "oat, wild [1]; Postemergence, 125 g ai/ha", "result": 20},
      {"measurement": "Plant response rating, Wheat", "setting": "wheat [2]", "result": 20},
      {"measurement": "Plant response rating, Soybean", "setting": "soybean [3]", "result": 50},
      {"measurement": "Kochia plant response rating", "setting": "kochia [4]; [24]", "result": 100},
      {"measurement": "Plant response rating, Kochia", "setting": "kochia [4]; [25]", "result": 90},
      {"measurement": "Foxtail, Green plant response rating", "setting": "green foxtail [5]; [24]", "result": 100},
      {"measurement": "Plant response rating, Foxtail, Green", "setting": "green foxtail [5]; [25]", "result": 100},
      {"measurement": "Plant response rating, Rice (Flood)", "setting": "rice", "result": 15},
      {"measurement": "Plant response rating, Kochia", "setting": "kochia [6]; 500 g ai/ha, postemergence", "result": 100},
      {"measurement": "Plant response rating, Kochia", "setting": "kochia [6]; Postemergence, 125 g ai/ha", "result": 90},
      {"measurement": "Ragweed plant response rating", "setting": "ragweed [7]; [24]", "result": 80},
      {"measurement": "Plant response rating, Ragweed", "setting": "ragweed [7]; [25]", "result": 50},
      {"measurement": "Soybean plant response rating", "setting": "soybean [8]; [24]", "result": 100},
      {"measurement": "Plant response rating, Soybean", "setting": "soybean [8]; [25]", "result": 70},
      {"measurement": "Corn plant response rating", "setting": "corn [9]; [24]", "result": 20},
      {"measurement": "Plant response rating, Corn", "setting": "corn [9]; [25]", "result": 10},
      {"measurement": "Plant response rating, Blackgrass", "setting": "blackgrass [10]; 500 g ai/ha, postemergence", "result": 90},
      {"measurement": "Plant response rating, Blackgrass", "setting": "blackgrass [10]; Postemergence, 125 g ai/ha", "result": 80},
      {"measurement": "Plant response rating, Pigweed, Palmer", "setting": "pigweed, palmer [11]; 500 g ai/ha, postemergence", "result": 100},
      {"measurement": "Plant response rating, Pigweed, Palmer", "setting": "pigweed, palmer [11]; Postemergence, 125 g ai/ha", "result": 100},
      {"measurement": "Wheat plant response rating", "setting": "wheat [12]; [24]", "result": 30},
      {"measurement": "Plant response rating, Wheat", "setting": "wheat [12]; [25]", "result": 10},
      {"measurement": "Oat, Wild plant response rating", "setting": "oat, wild [13]; [24]", "result": 90},
      {"measurement": "Plant response rating, Oat, Wild", "setting": "oat, wild [13]; [25]", "result": 60},
      {"measurement": "Plant response rating, Corn", "setting": "corn [14]; 500 g ai/ha, postemergence", "result": 70},
      {"measurement": "Plant response rating, Corn", "setting": "corn [14]; Postemergence, 125 g ai/ha", "result": 70},
      {"measurement": "Ryegrass, Italian plant response rating", "setting": "ryegrass, Italian [15]; [24]", "result": 90},
      {"measurement": "Plant response rating, Ryegrass, Italian", "setting": "ryegrass, Italian [15]; [25]", "result": 80},
      {"measurement": "Plant response rating, Ragweed", "setting": "ragweed [16]", "result": 100},
      {"measurement": "Plant response rating, Sedge, Umbrella (Flood)", "setting": "sedge, umbrella", "result": 45},
      {"measurement": "Plant response rating, Ryegrass, Italian", "setting": "ryegrass, Italian [17]", "result": 50},
      {"measurement": "Blackgrass plant response rating", "setting": "blackgrass [18]; [24]", "result": 90},
      {"measurement": "Plant response rating, Blackgrass", "setting": "blackgrass [18]; [25]", "result": 70},
      {"measurement": "Plant response rating, Ducksalad (Flood)", "setting": "ducksalad", "result": 10},
      {"measurement": "Pigweed, Palmer plant response rating", "setting": "pigweed, palmer [19]; [24]", "result": 100},
      {"measurement": "Plant response rating, Pigweed, Palmer", "setting": "pigweed, palmer [19]; [25]", "result": 100},
      {"measurement": "Plant response rating, Horseweed", "setting": "horseweed; 500 g ai/ha, postemergence", "result": 80},
      {"measurement": "Plant response rating, Horseweed", "setting": "horseweed; Postemergence, 125 g ai/ha", "result": 40},
      {"measurement": "Plant response rating, Barnyardgrass (Flood)", "setting": "barnyardgrass [20]", "result": 50},
      {"measurement": "Barnyardgrass plant response rating", "setting": "barnyardgrass [21]; [24]", "result": 100},
      {"measurement": "Plant response rating, Barnyardgrass", "setting": "barnyardgrass [21]; [25]", "result": 90},
      {"measurement": "Plant response rating, Barnyardgrass", "setting": "barnyardgrass [22]; 500 g ai/ha, postemergence", "result": 60},
      {"measurement": "Plant response rating, Barnyardgrass", "setting": "barnyardgrass [22]; Postemergence, 125 g ai/ha", "result": 40},
      {"measurement": "Plant response rating, Foxtail, Green", "setting": "green foxtail [23]; 500 g ai/ha, postemergence", "result": 90},
      {"measurement": "Plant response rating, Foxtail, Green", "setting": "green foxtail [23]; Postemergence, 125 g ai/ha", "result": 90}
    ]}
  ]
}
